In patent US6897348B2, “Bandage, methods of producing and using same” (Kimberly Clark Worldwide, Inc, priority 2001, dated 2005):

Columns and labels:
[1] = system: full thickness (excisional) wounds on dorsal skin; experiment: Accelerated wound healing study, full thickness acute wound model (re-epithelialization, epithelial thickness); assay type: in vivo; settings: rat full thickness wound
Protocol: Following the assessment of hemostatic agents, a study was conducted using the accelerated wound healing study protocol which follows. In the examples of the study, a series of comparative control bandage substrates were evaluated as to the speed at which wounds covered/dressed with such bandages healed. In particular, the rates of re-epithelialization were measured for wounds dressed by such control dressing materials. Additionally, the rates at which wounds heal that have been treated with a series of test compounds in accordance with the present invention, were also measured and compared with the controls.
For the purposes of the examples, the test compounds consisted of chitosan, Niacinamide ascorbate (hereinafter NA) prepared by the method which follows; and chitosan niacinamide ascorbate salt (hereinafter CNA, prepared by the method which follows), 2-ply surgical gauze, and Comfeel® Plus Clear Dressing (Colorplast).
Wounds were treated with test and control articles on the day of wounding (day 0) on 2, 4, 6, 8, 10, 12, and 14 days after the injury. CNA (freeze dried) was cut to the approximate size of the wound and applied over the wound. Chitosan (powder) and NA (powder) were applied over the wound to the depth that covered the underlying tissue. The gauze was cut to extend approximately 0.5 cm beyond the margins of the wound. The Comfeel® Plus dressing was cut to the approximate size of the wound and applied over the wound and also used to cover all test and control articles over the entire dorsal surface of the animal. […]
For the study, twenty four albino rats (12M/12F), each weighing between 250-300 g, were anesthetized (90 mg/Kg Ketamine HCL and 10 mg/Kg Xylazine) and the entire dorsal region of each rat was shaved. […] The epithelial thickness of the three sections of the wound (margin, center and midpoint between these two) was measured by morphometric analysis of the microscopic image using Image-Pro Plus software, Version 3.0 (Media Cybernetics). The average thickness of these sites within the wound was determined for wound healing of the entire site.

human blood = experiment: Lee and White Coagulation Assay in Human Blood; settings: samples in dried form (5 mg/ml), triplicate
Protocol: For the purposes of this application, and as a preliminary matter, a series of hemostatic agents were evaluated in order to determine a relative comparison of the effectiveness of such compounds on human blood. Each of the compounds were evaluated in the comparison against the standard control (human blood) and the negative control heparin, which is an anti-coagulant. […] Lee and White Coagulation Assay in Human Blood [table]

Molecule | improvement in re-epithelialization over the gauze control ([1]; day 5) [%] | re-epithelialization compared with the Comfeel control ([1]; over 15 days) | re-epithelialization compared with the gauze control ([1]; over 15 days) | BLOOD CLOTTING TIME (MIN) (human blood)
NC(=O)c1cccnc1.O=C1O[C@H]([C@@H](O)CO)C(O)=C1O [NA, Niacinamide ascorbate] | > 50 | larger growth rates (re-epithelialization rates) | larger numbers for re-epithelialization than the control | 
Heparin |  |  |  | NC (NC = No Clot for 60 min)
